Where a SMILES comes first, the peptide text is derived from it. Where no end group is shown, it is not given here.
Key:
[1] = test system: Rat Skin; assay: Skin test, intradermal titration in rat skin in vivo; settings: read 20 minutes after intradermal challenge
Protocol: (§1) Skin tests were carried out in the shaved backs of animals (rats and baboons) immediately after intravenous injection of pontamine sky blue (5%) in aqueous sodium chloride solution (0.9%) at a dose of 0.1 ml per kilogram of body weight in the case of rats and 5 ml per animal in the case of baboons.
(§2) Peptide in aqueous sodium chloride solution (0.9%), or saline control, were injected intradernally in 0.05 ml or 0.10 ml volumes. Skin reactions were read 20 minutes after intradernal challenge.

[2] = test system: Rat Peritoneal Mast Cells; assay: Cr^51 and lactic dehydrogenase (LDH) release from rat peritoneal mast cells; type: cell-based; settings: Rat Mast Cells in vitro
Source text: (§3) (a) (1) Histamine, (2) Cr^51 and (3) Lactic Dehydrogenase Release from Rat Peritoneal Mast Cells (Rat Mast Cell in vitro test)
(§4) Mast cells, derived from the peritoneal washings of three male, outbred Wistar rates (250-300 g), were purified by the procedure according to Cooper and Stanworth (Preparative biochem. 4(2), 105, 1975).
(§5) The purified cells were washed twice in Dulbecco's incomplete (i.e. free from mineral salts) buffer and then resuspended in Dulbecco's medium to the required volume. In a typical experiment, sufficient cells were available for 30 duplicate challenges, i.e. 60 samples and in this case the resuspension volume employed was 6.1 mls. 0.1 ml of cell suspension were taken for estimating the cell count.
One third of the cell suspension was employed. […] Activity present in the whole recovered supernatants was measured using a Tracer Laboratory Spectromatic γ counter. The percentage of Cr^51 released was assessed in relation to the values obtained for the positive and negative control solutions.
One third of the cell suspension was employed. […] The solutions were incubated at ambient temperature for 20 minutes and the fluorescence emission was then measured. […] The LDH activity was assessed in terms of the increase of fluorescence over control due to NADH formation following lactate addition. […]

[3] = test system: Rat Peritoneal Mast Cells; assay: Histamine release from rat peritoneal mast cells (Rat Mast Cell in vitro test); type: cell-based; settings: for EC50: average of a number of experiments, read-out: ACTIVITY: average concentration of peptide to give approximately 50% release of available histamine from rat mast cells
Source text: as §3, §4, §5
One third of the cell suspension was employed. To 0.9 ml duplicate aliquots of challenge solution, prepared in complete Dulbecco's medium and prewarmed to 37° C., was added 0.1 ml of cell suspension. The solutions were then shaken gently, and allowed to incubate for 5 minutes at 37° C. The reaction tubes were then quickly removed from the incubator and placed in an ice bath. Supernatants were then seqparated from the cell population following centrifugation for 3 minutes at 1000 r.p.m. The cell residues were then treated with 2 mls of 0.4 N perchloric acid and allowed to stand for approximately 30 minutes at ambient temperature. The precipitated protein was removed by centrifugation and the supernatant solutions set aside for histamine analysis. The original supernatant solutions were treated with 1.0 ml of 0.8 N perchlorate and then treated in a similar manner to the cell residues. Histamine was measured by the method according to Evans, Lewis and Thompson (Life Sciences, 12, 327, 1973) using a Technicon Auto-analyser. Histamine release was calculated as a percentage of total histamine available in each challenge solution.

[4] = test system: Baboon Skin; assay: Skin test, intradermal titration in baboon skin in vivo; settings: for ACTIVITY: average concentration of peptide to give an end point in intradernal titrations in baboon skin: read 20 minutes after intradermal challenge
Protocol: as §1, §2

[5] = test system: peritoneal mast cells of ovalbumen-immunised Brown Norway rats; assay: Cross desensitisation between antigen and peptide in the in vitro rat mast cell system; type: cell-based
Protocol: (c) Cross Desensitisation in the vitro rat mast cell system between antigen and peptide
Brown Norway rats were immunised intraperitoneally with 100 μg of ovalbumen (XOA) in lmg `alum`. On day 27, peritoneal mast cells were removed, bulked and washed. Aliquots of cells were desensitised by the addition of 4×5 minute incubations with various XOA or peptide concentrations or buffer alone. The cells were then submitted to an optimal histamine releasing challenge of peptide, XOA, or challenged with buffer alone.

[6] = cells desensitised with the substance in 4 rising steps (BRL 21547 5 × 10^-8 to 10^-6 M; XOA 0.005 to 0.1 μg/ml), challenge Buffer
[7] = cells desensitised with the substance in 4 rising steps, challenge BRL 21547 (10^-5 M)
[8] = cells desensitised with the substance in 4 rising steps, challenge XOA lμg/ml
[9] = desensitisation steps 1-4 Buffer, challenge with the substance (BRL 21547 10^-5 M; XOA lμg/ml)

Row | Compound | ACTIVITY: average concentration of peptide to give an end point in intradernal titrations in rat skin [1] [µM] | LDH/^51 Cr Release ([2]; at 10^-6 M) | EC50 [3] [µM] | Inhibition of Activity ([3]; inhibition of the peptide's histamine release by Intal (10^-4)) [%] | ACTIVITY: average concentration of peptide to give an end point in intradernal titrations in baboon skin [4] [nM] | LDH/^51 Cr Release ([2]; at 10^-4 M peptide) | cross-desensitisation in rat mast cells in vitro between peptide and antigen (in words) [5] | Total average % histamine release [5, 6] [%] | Total average % histamine release [5, 7] [%] | Total average % histamine release [5, 8] [%] | Total average % histamine release [5, 9] [%] | Inhibition of Activity ([4]; by Antihistamine or Intal-like drug)
1 | COC(=O)[C@H](Cc1ccccc1)NC(=O)[C@H](Cc1ccccc1)NC(=O)CNC(=O)[C@H](CO)NC(=O)CNC(=O)[C@H](CCCCN)NC(=O)[C@@H](NC(=O)[C@@H](N)CCCCN)[C@@H](C)O [Example No. 1, LysThrLysGlySerGlyPhePheOMe] (H-KTKGSGFF-OMe) | 100 | None | 7.5 | 50 | 500 |  |  |  |  |  |  | 
2 | COC(=O)[C@H](Cc1ccccc1)NC(=O)[C@H](Cc1ccccc1)NC(=O)CNC(=O)[C@H](CO)NC(=O)CNC(=O)[C@H](CCCCN)NC(=O)[C@@H](NC(=O)[C@H](CCCCN)NC(=O)[C@@H](N)CCCNC(=N)N)[C@@H](C)O [Example No. 2, ArgLysThrLysGlySerGlyPhePheOMe] (H-RKTKGSGFF-OMe) | 100 |  | 0.15 |  | 100 |  |  |  |  |  |  | 
3 | COC(=O)[C@H](Cc1ccccc1)NC(=O)[C@@H](NC(=O)[C@H](Cc1ccccc1)NC(=O)[C@H](Cc1ccccc1)NC(=O)CNC(=O)[C@H](CO)NC(=O)CNC(=O)[C@H](CCCCN)NC(=O)[C@@H](NC(=O)[C@@H](N)CCCCN)[C@@H](C)O)C(C)C [Example No. 3, LysThrLysGlySerGlyPhePheValPheOMe] (H-KTKGSGFFVF-OMe) | 10 |  | 1 |  | 10 | None | cross-desensitisation | 6 | 6 | 17 | 47 | Partial
4 | COC(=O)[C@H](Cc1ccccc1)NC(=O)[C@H](Cc1ccccc1)NC(=O)CNC(=O)[C@H](CO)NC(=O)CNC(=O)[C@H](CCCCN)NC(=O)[C@@H](NC(=O)[C@H](CCCCN)NC(=O)[C@H](CCCNC(=N)N)NC(=O)[C@@H]1CCCN1)[C@@H](C)O [Example No. 5, ProArgLysThrLysGlySerGlyPhePheOMe] (H-PRKTKGSGFF-OMe) | 100 |  | 9.2 |  | 100 |  |  |  |  |  |  | 
5 | KTKGSGFF-OH [Example No. 6, LysThrLysGlySerGlyPhePheOH] | 100 |  | 10 |  | 10000 |  |  |  |  |  |  | 
6 | KTKGSGFFVF-OH [Example No. 4, LysThrLysGlySerGlyPhePheValPheOH] | 100 |  | 33 |  | 10000 |  |  |  |  |  |  | 
7 | XOA: ovalbumen (XOA), the antigen used to immunise Brown Norway rats and to challenge or desensitise their mast cells [reference compound] |  |  |  |  |  |  |  | 6 | 6 | 6 | 56 | 
